The values below come from paper PMC8330742, “New benzothieno[2,3-c]pyridines as non-steroidal CYP17 inhibitors: design, synthesis, anticancer screening, apoptosis induction, and in silico ADME profile studies” (Journal of Enzyme Inhibition and Medicinal Chemistry, 2021).

Where two headings read alike, the source gives them in different places.

Data set [1] deals with RPMI-8226. Briefly: NCI-60 SRB screen. Type of data set: cell-based. The note with it: Homo sapiens, single dose 10^−5 M, read-out: Growth inhibition (%).
For data set [2], the system named is SR. Briefly: NCI-60 SRB screen. In kind it is cell-based. The note with it: Homo sapiens, single dose 10^−5 M, read-out: Growth inhibition (%).
Data set [3] concerns MDA-MB-435. Briefly: NCI-60 SRB screen. The note with it: Homo sapiens, MDA-MB-435, read-out: Growth inhibition (%). In kind it is cell-based.
In data set [4] the test system is OVCAR-5. As to the kind of experiment: NCI-60 SRB screen. In kind it is cell-based, human. The settings on record: Homo sapiens, single dose 10^−5 M, read-out: Growth inhibition (%).
Data set [5] relates to A498. As to the kind of experiment: NCI-60 SRB screen. In kind it is cell-based, human. The note with it: Homo sapiens, single dose 10^−5 M, read-out: Growth inhibition (%).
The test system of data set [6] is PC-3. Briefly: NCI-60 SRB screen. Type of data set: cell-based, human. The note with it: Homo sapiens, single dose 10^−5 M, read-out: Growth inhibition (%).
The test system of data set [7] is DU-145. Briefly: NCI-60 SRB screen. In kind it is cell-based, human. The settings on record: Homo sapiens, single dose 10^−5 M, read-out: Growth inhibition (%).
Data set [8] has as its system MCF7. As to the kind of experiment: NCI-60 SRB screen. Type of data set: cell-based, human. The note with it: Homo sapiens, read-out: Growth inhibition (%).
For data set [9], the system named is MDA-MB-231/ATCC. Briefly: NCI-60 SRB screen. In kind it is cell-based, human. The note with it: Homo sapiens, single dose 10^−5 M, read-out: Growth inhibition (%).
Data set [10] has as its system BT-549. As to the kind of experiment: NCI-60 SRB screen. Type of data set: cell-based, human. The settings on record: Homo sapiens, single dose 10^−5 M, read-out: Growth inhibition (%).
Data set [11] concerns T-47D. As to the kind of experiment: NCI-60 SRB screen. In kind it is cell-based, human. The settings on record: Homo sapiens, T47D, single dose 10^−5 M, read-out: Growth inhibition (%).
Data set [12] has as its system MDA-MB-468. Briefly: NCI-60 SRB screen. Type of data set: cell-based, human. The note with it: Homo sapiens, single dose 10^−5 M, read-out: Growth inhibition (%).
The test system of data set [13] is SF-539. As to the kind of experiment: NCI-60 SRB screen. The note with it: Homo sapiens; single dose 10^−5 M; SF-539, CNS cancer; read-out: Growth inhibition (%). In kind it is cell-based, human.
The subject of data set [14] is SNB-19. As to the kind of experiment: NCI-60 SRB screen. In kind it is cell-based. The note with it: Homo sapiens; single dose 10^−5 M; SNB-19, CNS cancer; read-out: Growth inhibition (%).
Data set [15] relates to SNB-75. Briefly: NCI-60 SRB screen. The settings on record: Homo sapiens; single dose 10^−5 M; SNB-75, CNS cancer; read-out: Growth inhibition (%). Type of data set: cell-based, human.
Data set [16] deals with U251. Briefly: NCI-60 SRB screen. In kind it is cell-based, human. The settings on record: Homo sapiens, U-251; single dose 10^−5 M; U251, CNS cancer; read-out: Growth inhibition (%).
The mark [17] stands for this setting: single dose 10^−5 M, MCF-7, Breast cancer.

By inhibition is commonly meant the drop in the measured response relative to a control, in per cent. One may read the melting point as the temperature, or range, at which the solid turns liquid.

The compound `O=C1NC(c2cccc([N+](=O)[O-])c2)c2sc3c(F)cccc3c2C1Cl` (stereo not shown) [Compound 4d, 4-Chloro-8-fluoro-1-(3-nitrophenyl)-1,2-dihydro[1]benzothieno[2,3-c] pyridine-3(4H)-one] gave a melting point of 160 to 162 °C. For the same compound, the inhibition at 10 µM in [1] (RPMI-8226) came out at 9.61%. In addition, in [2], the inhibition at 10 µM was found to be 11.4%. The inhibition at 10 µM in [3] is -7.63%. Further, the inhibition at 10 µM in data set [4] (OVCAR-5) was -3.92%. In addition, the inhibition at 10 µM in data set [5] (A498) is -0.03%. Besides, in data set [6] (PC-3), the inhibition at 10 µM turned out to be 3.8%. Also, in data set [7] (DU-145), the inhibition at 10 µM is -8.57%. In [8] (MCF-7, single dose 10^−5 M), the inhibition at 10 µM was 8.44%. The inhibition at 10 µM in data set [9] (MDA-MB-231, MDAMB231/ATCC) came to 5.22%. Further, the inhibition at 10 µM in data set [10] (BT-549) came out at 3.62%. The inhibition at 10 µM in data set [11] came to 8.7%. Also, the inhibition at 10 µM in [12] (MDA-MB-468) was -8.27%.

`N#CC1C(=O)NC(c2cccc([N+](=O)[O-])c2)c2sc3c(F)cccc3c21` (stereo not shown) [Compound 5d, 4-Cyano-8-fluoro-1-(3-nitrophenyl)-1,2-dihydro[1]benzothieno[2,3-c] pyridin-3(4H)-one]: the melting point was 180 to 182 °C. The inhibition at 10 µM in [1] (RPMI-8226) turned out to be 14%. Also, in data set [2], the inhibition at 10 µM was 17.3%. In addition, in [3], the inhibition at 10 µM was -6.69%. Moreover, in data set [4] (OVCAR-5), the inhibition at 10 µM is 1.54%. Besides, the inhibition at 10 µM in data set [5] (A498) was determined as 17.3%. Besides, the inhibition at 10 µM in data set [6] (PC-3) amounted to 13.2%. Also, the inhibition at 10 µM in data set [7] (DU-145) was -10%. Also, the inhibition at 10 µM in data set [8] (MCF-7, single dose 10^−5 M) was found to be 15.1%. Further, the inhibition at 10 µM in data set [9] (MDA-MB-231, MDAMB231/ATCC) worked out at 19.2%. Also, the inhibition at 10 µM in [10] (BT-549) was 8.35%. Further, the inhibition at 10 µM in data set [11] came out at 20.1%. Further, the inhibition at 10 µM in data set [12] (MDA-MB-468) was -6.48%.

As to `CCN1CCN(C2C(=O)NC(c3cccc([N+](=O)[O-])c3)c3sc4c(F)cccc4c32)CC1` (stereo not shown) [Compound 6a, 4-(4-Ethylpiperazin-1-yl)-8-fluoro-1-(3-nitrophenyl)-1,2-dihydro[1]benzo thieno[2,3-c]pyridin-3(4H)-one], the melting point was 240 to 241 °C. Further, in data set [1] (RPMI-8226), the inhibition at 10 µM stood at 4.93%. Further, in data set [2], the inhibition at 10 µM was found to be 8.6%. Besides, the inhibition at 10 µM in data set [3] was -2.64%. Moreover, in data set [4] (OVCAR-5), the inhibition at 10 µM was -3.55%. Besides, the inhibition at 10 µM in data set [5] (A498) was found to be 0.35%. In data set [6] (PC-3), the inhibition at 10 µM turned out to be 9.37%. The inhibition at 10 µM in [7] (DU-145) is -10.8%. The inhibition at 10 µM in data set [8] (MCF-7, single dose 10^−5 M) was 0.6%. Moreover, the inhibition at 10 µM in data set [9] (MDA-MB-231, MDAMB231/ATCC) was -0.79%. Also, the inhibition at 10 µM in [10] (BT-549) was -0.58%. In addition, in [11], the inhibition at 10 µM was -1.25%. Besides, the inhibition at 10 µM in [12] (MDA-MB-468) was -7.69%.

As to `O=C1NC(c2cccc([N+](=O)[O-])c2)c2sc3c(F)cccc3c2C1N1CCCCC1` (stereo not shown) [Compound 6c, 8-Fluoro-1-(3-nitrophenyl)-4-(piperidin-1-yl)-1,2-dihydro[1]benzothieno [2,3-c]pyridin-3(4H)-one], the inhibition at 10 µM in data set [1] (RPMI-8226) is 5.15%; in data set [2], 0.3%; in data set [3], -8.63%; in [4] (OVCAR-5), -1.56%; in [5] (A498), 7.34%; in [6] (PC-3), 8.67%. The inhibition at 10 µM in [7] (DU-145) was -9.9%; in data set [8] (MCF-7, single dose 10^−5 M), 10.2%; in data set [9] (MDA-MB-231, MDAMB231/ATCC) it was 0.28%; in data set [10] (BT-549), 1.61%; in data set [11] it was 8.12%; in data set [12] (MDA-MB-468), -9.31%.

As to `CCN1CCN(C2=C(Cl)c3c(sc4c(F)cccc34)C(c3cccc([N+](=O)[O-])c3)N2)CC1` (stereo not shown) [Compound 8a, 4-Chloro-3–(4-ethylpiperzin-1-yl)-8-fluoro-1-(3-nitrophenyl)-1,2-dihydro [1]benzothieno[2,3-c]pyridine], the inhibition at 10 µM was 15.4% in data set [1] (RPMI-8226, Leukaemia); 23.5% in data set [2] (Leukaemia); 4.31% in [13]; 1.26% in [14]; 11.8% in [15]; 6.16% in data set [16]. Also, the inhibition at 10 µM in [3] was -6.27%; in data set [4] (OVCAR-5, Ovarian cancer) it was 1.9%; in [5] (A498, Renal cancer), 0.93%; in data set [6] (PC-3, Prostate cancer) it was 7.7%; in data set [7] (DU-145, Prostate cancer), -7.24%; in data set [8] (setting [17]) it was 4.08%. Besides, the inhibition at 10 µM in data set [9] (MDA-MB 231/ATCC, Breast cancer) is 12%; in data set [10] (BT-549, Breast cancer), 9.38%; in data set [11] (Breast cancer), 11.1%; in data set [12] (MDA-MB-468, Breast cancer), -9.64%.

On to `CCN1CCN(C2=C(C#N)c3c(sc4c(F)cccc34)C(c3cccc([N+](=O)[O-])c3)N2)CC1` (stereo not shown) [Compound 8d, 4-Cyano-3-(4-ethylpiperazin-1-yl)-8-fluoro-1-(3-nitrophenyl)-1,2-dihydro [1]benzothieno[2,3-c]pyridine], for which the inhibition at 10 µM is 1.72% in data set [1] (RPMI-8226, Leukaemia); 11.8% in [2] (Leukaemia); 6.11% in [13]; -1.27% in data set [14]; 8.49% in data set [15]; 0.9% in data set [16]. Besides, the inhibition at 10 µM in data set [3] is -7.84%; in [4] (OVCAR-5, Ovarian cancer), -4.1%; in data set [5] (A498, Renal cancer) it was 12.1%; in data set [6] (PC-3, Prostate cancer), 9.1%; in data set [7] (DU-145, Prostate cancer), -11.2%; in [8] (setting [17]) it was 9.44%. The inhibition at 10 µM was 19.8% in data set [9] (MDA-MB 231/ATCC, Breast cancer); 1.51% in data set [10] (BT-549, Breast cancer); 22.3% in [11] (Breast cancer); -2.69% in data set [12] (MDA-MB-468, Breast cancer).

As to `N#CC1=C(N2CCOCC2)NC(c2cccc([N+](=O)[O-])c2)c2sc3c(F)cccc3c21` (stereo not shown) [Compound 8e, 4-Cyano-3-(4-morpholino)-8-fluoro-1-(3-nitrophenyl)-1,2-dihydro [1]benzothieno[2,3-c]pyridine], the inhibition at 10 µM is 6.66% in data set [1] (RPMI-8226, Leukaemia); 9.91% in data set [2] (Leukaemia); 3.33% in data set [13]; -0.92% in data set [14]; 7.28% in data set [15]; -2.2% in data set [16]. For the same compound, the inhibition at 10 µM was -7.7% in data set [3]; 0.99% in [4] (OVCAR-5, Ovarian cancer); 3.17% in [5] (A498, Renal cancer); 12.3% in data set [6] (PC-3, Prostate cancer); -12.3% in [7] (DU-145, Prostate cancer); -1.68% in [8] (setting [17]). The inhibition at 10 µM in data set [9] (MDA-MB 231/ATCC, Breast cancer) was 13.4%; in data set [10] (BT-549, Breast cancer), 1.14%; in data set [11] (Breast cancer), -4.79%; in [12] (MDA-MB-468, Breast cancer) it was -11%.

On to `N#CC1=C(Nc2ccccc2F)NC(c2cccc([N+](=O)[O-])c2)c2sc3c(F)cccc3c21` (stereo not shown) [Compound 10, 4-Cyano-8-fluoro-3((2-fluorophenyl)amino)-1–(3-nitrophenyl)-1,2-dihydro[1]benzothieno[2,3-c]pyridine], for which the inhibition at 10 µM in data set [1] (RPMI-8226, Leukaemia) is 1.46%; in [2] (Leukaemia) it was 13%; in data set [13], 6.04%; in data set [14] it was -3.45%; in data set [15], 10.1%; in data set [16], -9.9%. Also, the inhibition at 10 µM in data set [3] is -4.45%; in data set [4] (OVCAR-5, Ovarian cancer), -3.49%; in data set [5] (A498, Renal cancer), 3.94%; in data set [6] (PC-3, Prostate cancer), 7.8%; in data set [7] (DU-145, Prostate cancer) it was -8.61%; in data set [8] (setting [17]), 4.92%. Also, the inhibition at 10 µM in data set [9] (MDA-MB 231/ATCC, Breast cancer) is 17.4%; in data set [10] (BT-549, Breast cancer), 1.04%; in [11] (Breast cancer), -2.94%; in data set [12] (MDA-MB-468, Breast cancer), -7.35%.
